Measurements as given in patent US7538116B2, “Treatment of sexual disorders” (priority 2003, dated 2009).

Experiments:
Type in all cases: in vivo, human
[1] = system: subjects from trial 134004; experiment: DISF interview, long-term trial 134502 (continued or switched therapy)
Experimental: (§1) Sexual dysfunction and recovery were measured with the Derogatis Interview for Sexual Functioning (DISF/DISF-SR). This provides for a coordinated set of brief matched instruments designed to provide an estimate of the quality of an individual's current sexual functioning. The DISF is a semi-structured interview comprising 25 items and reflecting quality of sexual functioning in a multi-domain format. The DISF-SR is a matching Self-Report (SR) inventory designed to accomplish the same goal in a patient self-report mode. There are gender specific male and female versions of both the DISF and the DISF-SR. All instruments in the DISF series are designed to be interpreted at three distinct levels: Discrete Items, Functional Domains, and aggregate summary (Total Score). The Discrete Items are arranged into five primary Functional Domains of sexual functioning: (I) sexual cognition/fantasy, (II) sexual arousal, (III) sexual behavior/experience, (IV) orgasm, and (V) sexual drive/relationship. Both the DISF and the DISF-SR take approximately 12 to 15 minutes to administer. Internal consistency reliabilities for domain scores of the DISF-SR range from 0.70 to 0.77, while test-retest stability coefficients are 0.80 to 0.90 and 0.86 for the Total Score. Inter-rater reliability estimates for the DISF interview ranged from 0.84 to 0.92 for domain scores, and 0.91 for the Total. […] The DISF/DISF-SR is currently available in 10 foreign languages.
(§2) The Derogatis Interview was used, providing information on the quality of the subject's sexual functioning in quantitative terms. Only subjects who were willing to discuss their sexual functioning with the investigator were to be included. In addition, the scores from the interview, as well as demographic and medical history information, were to be used by the investigator to determine whether or not the subject reached the threshold of disorder (absent or present) for the primary criteria for the DSM-IV Sexual Disorders.
In another study (Organon's Internal reference number 134501), all subjects received gepirone ER (40 mg) after having completed a trial wherein subjects were randomized to receive either gepirone ER or placebo. DISF-SR data from the analysis of this long-term trial were analyzed. For females, data were available for 23 subjects who received gepirone in a previous trial (Organon internal reference: 134001 or 134002) previously (henceforth referred to as gepirone in this paragraph) and 23 subjects who received placebo previously (henceforth referred to as placebo in this paragraph). […] For males, data were available for 17 subjects who received gepirone and 17 subjects who received placebo. […] DISF Interview data from the analysis of another long-term trial (Organon internal reference: 134502) were analyzed. In this trial subjects from a previous trial (Organon internal reference:134004) were continued on therapy or were switched to a new drug, depending on antidepressant response.

subjects with depression = experiment: DISF interview, short-term investigation in depression (134004); settings: trial 134004; for mean change from baseline in total score (DISF interview): short-term treatment
Experimental: as §1, §2
DISF interview data from the analysis of another investigation of gepirone in depression (Organon internal reference number: 134004) were analyzed. […] Upon analysis of change from baseline in total score only for each domain for females and Domains I to III for males, similar conclusions for subjects who received gepirone and fluoxetine could be drawn.

[2] = system: subjects from trials 134001 or 134002; experiment: DISF-SR, long-term trial 134501 (all subjects on gepirone ER); settings: then gepirone ER 40 mg
Experimental: as §1, §2
In another study (Organon's Internal reference number 134501), all subjects received gepirone ER (40 mg) after having completed a trial wherein subjects were randomized to receive either gepirone ER or placebo. DISF-SR data from the analysis of this long-term trial were analyzed. For females, data were available for 23 subjects who received gepirone in a previous trial (Organon internal reference: 134001 or 134002) previously (henceforth referred to as gepirone in this paragraph) and 23 subjects who received placebo previously (henceforth referred to as placebo in this paragraph). […] DISF Interview data from the analysis of another long-term trial (Organon internal reference: 134502) were analyzed. […]

depressed patients = experiment: Specific case descriptions, long-term open-label study
Excerpt: In another trial patients were enrolled in a long-term open-label study of depressed patients. […] It was observed that most of the reports were from patients in long-term therapy who had recovered from their depression weeks to months before making the reports. These reports provided incidental observations on both men and women of various ages that sexual desire had increased to a level not previously experienced by the subject and which was quite pleasing to them. It appeared that these patients were no longer depressed and now had the added benefit that sexual function, sexual relationships, and quality of life were improved beyond that experienced by patients merely recovering from depression. […] They were pursuing a dating life for the first time in years. […] They were not depressed anymore and the sexual effects continued to increase. […] They were successful and carried out a satisfying sexual relationship for the fist time since the death of their spouse. They were reported to be “giddy” over the effects of gepirone in this domain. Their quality of life was judged as much improved by the investigator.

depressed outpatients = experiment: DISF-SR, combined analysis of two short-term investigations (134001 and 134002); settings: short-term treatment (2 months), 134001 and 134002 combined
Experimental: Sexual dysfunction and recovery were measured with the Derogatis Interview for Sexual Functioning (DISF/DISF-SR). This provides for a coordinated set of brief matched instruments designed to provide an estimate of the quality of an individual's current sexual functioning. The DISF is a semi-structured interview comprising 25 items and reflecting quality of sexual functioning in a multi-domain format. The DISF-SR is a matching Self-Report (SR) inventory designed to accomplish the same goal in a patient self-report mode. There are gender specific male and female versions of both the DISF and the DISF-SR. All instruments in the DISF series are designed to be interpreted at three distinct levels: Discrete Items, Functional Domains, and aggregate summary (Total Score). The Discrete Items are arranged into five primary Functional Domains of sexual functioning: (I) sexual cognition/fantasy, (II) sexual arousal, (III) sexual behavior/experience, (IV) orgasm, and (V) sexual drive/relationship. Both the DISF and the DISF-SR take approximately 12 to 15 minutes to administer. […]
The Derogatis Interview was used, providing information on the quality of the subject's sexual functioning in quantitative terms. […]
DISF-SR data from the combined analysis of two investigations of gepirone in depressed outpatients (Organon internal reference: 134001 and 134002) were analyzed. […]

[3] = system: subjects in remission from depression; experiment: DISF total score, longer-term trial 28709 (randomized after remission); settings: for mean change from baseline in total score (DISF): gepirone HCl ER 40 mg, randomized after remission
Experimental: as §1
as §2, with “Disorders. […]” for “Disorders.”

[4] = males, same treatment throughout short-term (134004) and long-term (134502) trials

SMILES: CNCCC(Oc1ccc(C(F)(F)F)cc1)c1ccccc1 (centres unmarked) [fluoxetine]
- mean change from baseline in total score (DISF interview) ([1]; females, switched from gepirone to fluoxetine, trial 134502): +0.9
- mean change from baseline in total score (DISF interview) [1, 4]: −1.2
- mean change from baseline in total score (DISF interview) ([1]; males, switched from gepirone to fluoxetine, trial 134502): −5.8
- mean change from baseline in total score (DISF interview) (subjects with depression; females): −3.5
- mean change from baseline in total score (DISF interview) (subjects with depression; males): −4.4

SMILES: CC1(C)CC(=O)N(CCCCN2CCN(c3ncccn3)CC2)C(=O)C1 [gepirone, 4,4-dimethyl-1-[4-[4-(2-pyrimidinyl)-1-piperazinyl]butyl]-2,6-piperidinedione]
- mean change from baseline in total score (DISF-SR) ([2]; females, gepirone in previous trial): +11.2
- mean change from baseline in total score (DISF-SR) ([2]; females, placebo in previous trial): +3.3
- mean change from baseline in total score (DISF-SR) ([2]; males, gepirone in previous trial): +12.3
- mean change from baseline in total score (DISF-SR) ([2]; males, placebo in previous trial): −4.4
- quality of life judged by the investigator (case report) (depressed patients; patient): much improved
- orgasms (case report) (depressed patients; person on open-label therapy, no longer depressed): more frequent and more intense
- libido (case report) (depressed patients; person, on gepirone for nearly a year): libido was up
- mean change from baseline in total score (DISF interview) ([1]; females, same treatment throughout short-term (134004) and long-term (134502) trials): +18.1
- mean change from baseline in total score (DISF interview) ([1]; females, switched from fluoxetine to gepirone, trial 134502): +2.3
- mean change from baseline in total score (DISF interview) ([1]; females, switched from placebo to gepirone, trial 134502): +4.2
- mean change from baseline in total score (DISF interview) [1, 4]: +5.5
- mean change from baseline in total score (DISF interview) ([1]; males, switched from fluoxetine to gepirone, trial 134502): +3.3
- mean change from baseline in total score (DISF interview) ([1]; males, switched from placebo to gepirone, trial 134502): +7.1
- mean change from baseline in total score (DISF-SR) (depressed outpatients; females): +8.0
- mean change from baseline in total score (DISF-SR) (depressed outpatients; males): +13.7
- mean change from baseline in total score (DISF) ([3]; females): +5.2
- Domains IV (orgasm) and V (sexual drive/relationship), total score from baseline ([3]; males): improvement in total score from baseline
- mean change from baseline in total score (DISF) ([3]; males): +18.7
- mean change from baseline in total score (DISF interview) (subjects with depression; females): +4.3
- mean change from baseline in total score (DISF interview) (subjects with depression; males): 0
- change from baseline in total score for Domains IV (orgasm) and V (sexual drive/relationship) (subjects with depression; males): improvement in total score from baseline
